Entries after “also recorded” stand apart in the source; their conditions may differ.
How the values were obtained:
[1] = system: B16F10 cells; type: cell-based
[2] = system: D2A1 cells; type: cell-based
[3] = system: HeLa cells; type: cell-based, human
[4] = system: 4T1 cells; type: cell-based
[5] = system: cAMP; type: cell-based, human
[6] = system: HeLa cells; assay: Apoptosis induction in HeLa cells by S. enterica aroA delivered murine tBid fusions (cleaved Caspase 3 p17 western blot); type: cell-based, human; details: 4 h, MOI of 100
[7] = system: HeLa cells; assay: Removal of YopE1-138 appendage by T3SS-delivered TEV protease, Western blot of digitonin lysed HeLa cells; type: cell-based, human; details: coinfection, 2 h
Source text: HeLa cells in 6-well plates were infected at an MOI of 100 as described above. In case of coinfection with the TEV protease translocating Y. enterocolitica strain, the OD600 of the strains was set and the two bacterial suspensions were mixed in a tube at a ratio of 1:1 (if not otherwise indicated) before addition to the cells. At the end of the infection, the cells were washed twice with ice-cold PBS and collected by scraping in a small volume of ice-cold PBS. After centrifugation (16 000 rcf, 5 min, 4° C.) the pellet was dissolved in 0.002% digitonin supplemented with a protease inhibitor cocktail (Roche complete, Roche). The dissolved pellets were incubated for 5 minutes on ice and then centrifuged (16 000 rcf, 25 min, 4° C.). Supernatants were collected and analyzed for total protein content by […] (Pierce) before SDS PAGE and Western blotting using an anti-Myc (Santa Cruz, 9E1 1) or anti-Ink4C (Cell Signaling) antibody.

[8] = system: HeLa cells; type: cell-based, human; remark: listed apart in the source
[9] = system: p38; type: cell-based, human
[10] = system: Akt; type: cell-based, human
[11] = system: actin network in HeLa cells; type: cell-based, human
[12] = system: zebrafish embryos; details: in vivo
[13] = S. enterica aroA grown under SPI-1 T3SS inducing conditions
[14] = S. enterica aroA grown under SPI-2 T3SS inducing conditions

BH3 domain of murine BID: YopE1-138 fusion with BH3 domain of murine tBID, codon optimized for Y. enterocolitica
cell death / apoptosis induction [1]: induce massive cell death; also recorded: induces massive apoptosis
cell death / apoptosis induction [2]: induce massive cell death; also recorded: induces massive apoptosis
cell death / apoptosis induction [3]: induce massive cell death; also recorded: induces massive apoptosis
cell death / apoptosis induction [4]: induce massive cell death; also recorded: induces massive apoptosis

BepA: YopE1-138 fusion with full length type IV effector BepA from B. henselae
cAMP production [5]: triggered cAMP production in expected amounts

BepAE30 5-end: YopE1-138 fusion with BepA E305-end containing the C-terminal Bid domain
cAMP production [5]: triggered cAMP production in expected amounts

BepG: YopE1-138 fusion with the Bid domain of the B. henselae effector BepG
cAMP production [5]: failed to induce cAMP

Murine tBID fused to full length SteA: murine tBID fused to full length SteA, delivered by S. enterica
apoptosis induction (CASP3 p17 production) [6, 13]: lead to apoptosis induction in HeLa cells
apoptosis induction (CASP3 p17 production) [6, 14]: lead to apoptosis induction in HeLa cells

TEV protease: TEV protease (S219V variant) fused to YopE1-138, delivered via T3SS
function of TEV protease delivered via T3SS [7]: functional

YopEi_i38-BID: YopE1-138 fusion with human BH3 interacting-domain death agonist (BID)
apoptosis / cell death induction [8]: failed to induce apoptosis

YopEi_i38-OspF: YopE1-138 fusion with S. flexneri type III effector OspF
TNFa-induced p38 phosphorylation [9]: TNFa-induced phosphorylation was abolished

YopEi_i38-SopB: YopE1-138 fusion with Salmonella type III effector SopB
phosphorylation of Akt at T308 and S473 [10]: induced a strong phosphorylation of Akt at T308 and 5473

YopEi_i38-SopE-Myc: YopE1-138 fusion with SopE and MycHis tag
changes in the actin network / F-actin rearrangements [11]: triggered massive F-actin rearrangements

YopEi_i38-SopE: YopE1-138 fusion with SopE from Salmonella enterica
changes in the actin network / F-actin rearrangements [11]: induced dramatic changes in the actin network
time of first changes in the actin cytoskeleton [11]: 2 min p.i.
phosphorylation of Akt at T308 and S473 [10]: had no effect on Akt

YopEi_i38-SptP: YopE1-138 fusion with SptP, GTPase activating protein for Cdc42
effect of co-infection on YopE1-138-SopE-Myc triggered F-actin rearrangements [11]: abolished this effect in a dose dependent manner

YopEi_i38-z-BIM: YopE1-138 fusion with zebrafish apoptosis inducer BIM
apoptosis / cell death induction [8]: showed clear signs of cell death
automated image analysis of Caspase 3 p17 staining near bacteria [12]: induce apoptosis in nearby cells by far more than control bacteria do
cleaved CASP3 (apoptosis) in regions surrounding the bacteria [12]: strong increase in presence of cleaved CASP3; also recorded: induces apoptosis in zebrafish embryos

murine BAX: YopE1-138 fusion with BH3 domain of murine BAX, codon optimized for Y. enterocolitica
cell death / apoptosis induction [1]: induce massive cell death; also recorded: induces massive apoptosis
cell death / apoptosis induction [2]: induce massive cell death; also recorded: induces massive apoptosis
cell death / apoptosis induction [3]: induce massive cell death; also recorded: induces massive apoptosis
cell death / apoptosis induction [4]: induce massive cell death; also recorded: induces massive apoptosis

murine tBID: YopE1-138 fusion with murine tBID codon optimized for Y. enterocolitica
cell death / apoptosis induction [1]: triggered cell death; also recorded: induces massive apoptosis
cell death / apoptosis induction [2]: triggered cell death; also recorded: induces massive apoptosis
cell death / apoptosis induction [3]: triggered cell death; also recorded: induces massive apoptosis
cell death / apoptosis induction [4]: triggered cell death; also recorded: induces massive apoptosis

B1: SteAi_2o fused murine tBID: murine tBID fused to the 20 N-terminal amino acids of SteA, delivered by S. enterica (protein)
chain: MPYTSVSTYARALSGNKLPHGTGSQASRSFNQGRIEPDSESQEEIIHNIARHLAQIGDEMDHNIQPTLVRQLAAQFMNGSLSEEDKRNCLAKALDEVKTAFPRDMENDKAMLIMTMLLAKKVASHAPSLLRDVFHTTVNFINQNLFSYVRNLVRNEMD
modifications: SteA1-20 - S. enterica codon optimized murine t-BID
notes: murine tBID fused to the 20 N-terminal amino acids of SteA, delivered by S. enterica
apoptosis induction (CASP3 p17 production) [6, 13]: failed to induce apoptosis
apoptosis induction (CASP3 p17 production) [6, 14]: failed to induce apoptosis
